Measurements reported in PubChem BioAssay (NCI).
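Interpolation was linear, between the two tested concentrations surrounding the appropriate level; five concentrations were tested over 48 hours in 96-well plates. TGI is the concentration that stops growth completely.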

Tests used:
Assay in all cases: inhibition of tumour cell growth, NCI panel, 48 h
[1] = test system: HCC-2998 colon
[2] = test system: OVCAR-5 ovarian
[3] = test system: EKVX NSCLC
[4] = test system: OVCAR-4 ovarian
[5] = test system: SR leukemia
[6] = test system: ACHN renal
[7] = test system: K-562 leukemia
[8] = test system: DMS 273 small cell lung
[9] = test system: OVCAR-8 ovarian
[10] = test system: NCI-H226 lung
[11] = test system: HOP-62 NSCLC
[12] = test system: SF-295 CNS
[13] = test system: UO-31 renal
[14] = test system: 786-0 renal
[15] = test system: SW-620 colon
[16] = test system: HCT-15 colon
[17] = test system: M19-MEL melanoma
[18] = test system: HL-60(TB) leukemia
[19] = test system: XF 498 CNS
[20] = test system: DLD-1 colon
[21] = test system: TK-10 renal
[22] = test system: LOX IMVI melanoma
[23] = test system: MALME-3M melanoma
[24] = test system: SK-MEL-28 melanoma
[25] = test system: LXFL 529 NSCLC
[26] = test system: M14 melanoma
[27] = test system: RXF 393 renal
[28] = test system: MOLT-4 leukemia
[29] = test system: CAKI-1 renal
[30] = test system: SNB-19 CNS
[31] = test system: HOP-92 NSCLC
[32] = test system: HCT-116 colon
[33] = test system: SK-MEL-2 melanoma
[34] = test system: DMS 114 small cell lung
[35] = test system: SK-OV-3 ovarian
[36] = test system: RPMI-8226 leukemia
[37] = test system: NCI-H522 lung
[38] = test system: SF-268 CNS
[39] = test system: KM20L2 colon
[40] = test system: SN12C renal
[41] = test system: CCRF-CEM leukemia
[42] = test system: SK-MEL-5 melanoma
[43] = test system: HOP-18 NSCLC
[44] = test system: COLO 205 colon
[45] = test system: UACC-62 melanoma
[46] = test system: A549 NSCLC
[47] = test system: NCI-H460 lung
[48] = test system: IGROV1 ovarian
[49] = test system: U251 CNS
[50] = test system: NCI-H23 lung
[51] = test system: SNB-75 CNS
[52] = test system: UACC-257 melanoma
[53] = test system: A498 renal
[54] = test system: HT29 colon
[55] = test system: OVCAR-3 ovarian
[56] = test system: KM12 colon
[57] = test system: SNB-78 CNS
[58] = test system: SF-539 CNS

SMILES: CSc1nc2nccnc2c(=O)[nH]1
- TGI [1]: > 100 µM
- TGI [2]: > 100 µM
- TGI [3]: > 100 µM
- TGI [4]: > 100 µM
- TGI [5]: > 100 µM
- TGI [6]: > 100 µM
- TGI [7]: > 100 µM
- TGI [8]: > 100 µM
- TGI [9]: > 100 µM
- TGI [10]: > 100 µM
- TGI [11]: > 100 µM
- TGI [12]: > 100 µM
- TGI [13]: > 100 µM
- TGI [14]: > 100 µM
- TGI [15]: > 100 µM
- TGI [16]: > 100 µM
- TGI [17]: > 100 µM
- TGI [18]: > 100 µM
- TGI [19]: > 100 µM
- TGI [20]: > 100 µM
- TGI [21]: > 100 µM
- TGI [22]: > 100 µM
- TGI [23]: > 100 µM
- TGI [24]: > 100 µM
- TGI [25]: > 100 µM
- TGI [26]: > 100 µM
- TGI [27]: > 100 µM
- TGI [28]: > 100 µM
- TGI [29]: > 100 µM
- TGI [30]: > 100 µM
- TGI [31]: > 100 µM
- TGI [32]: > 100 µM
- TGI [33]: > 100 µM
- TGI [34]: > 100 µM
- TGI [35]: > 100 µM
- TGI [36]: > 100 µM
- TGI [37]: > 100 µM
- TGI [38]: > 100 µM
- TGI [39]: > 100 µM
- TGI [40]: > 100 µM
- TGI [41]: > 100 µM
- TGI [42]: > 100 µM
- TGI [43]: > 100 µM
- TGI [44]: > 100 µM
- TGI [45]: > 100 µM
- TGI [46]: > 100 µM
- TGI [47]: > 100 µM
- TGI [48]: > 100 µM
- TGI [49]: > 100 µM
- TGI [50]: > 100 µM
- TGI [51]: > 100 µM
- TGI [52]: > 100 µM
- TGI [53]: > 100 µM
- TGI [54]: > 100 µM

SMILES: CCCCN(C)CC(C(C)=O)C(c1ccccc1)c1c(O)c2ccccc2oc1=O (configuration not stated)
- TGI [2]: > 100 µM
- TGI [3]: > 100 µM
- TGI [4]: > 100 µM
- TGI [5]: > 100 µM
- TGI [6]: > 100 µM
- TGI [7]: > 100 µM
- TGI [8]: > 100 µM
- TGI [9]: > 100 µM
- TGI [10]: > 100 µM
- TGI [11]: > 100 µM
- TGI [12]: > 100 µM
- TGI [13]: > 100 µM
- TGI [14]: > 100 µM
- TGI [15]: > 100 µM
- TGI [16]: > 100 µM
- TGI [17]: > 100 µM
- TGI [18]: > 100 µM
- TGI [19]: > 100 µM
- TGI [55]: > 100 µM
- TGI [20]: > 100 µM
- TGI [21]: > 100 µM
- TGI [22]: > 100 µM
- TGI [56]: > 100 µM
- TGI [23]: > 100 µM
- TGI [57]: > 100 µM
- TGI [24]: > 100 µM
- TGI [25]: > 100 µM
- TGI [26]: > 100 µM
- TGI [27]: > 100 µM
- TGI [28]: > 100 µM
- TGI [29]: > 100 µM
- TGI [30]: > 100 µM
- TGI [32]: > 100 µM
- TGI [33]: > 100 µM
- TGI [58]: > 100 µM
- TGI [34]: > 100 µM
- TGI [35]: > 100 µM
- TGI [36]: > 100 µM
- TGI [37]: > 100 µM
- TGI [38]: > 100 µM
- TGI [39]: > 100 µM
- TGI [40]: > 100 µM
- TGI [41]: > 100 µM
- TGI [42]: > 100 µM
- TGI [43]: > 100 µM
- TGI [44]: > 100 µM
- TGI [45]: > 100 µM
- TGI [46]: > 100 µM
- TGI [47]: > 100 µM
- TGI [48]: > 100 µM
- TGI [49]: > 100 µM
- TGI [50]: > 100 µM
- TGI [51]: > 100 µM
- TGI [52]: > 100 µM
- TGI [53]: > 100 µM
- TGI [54]: > 100 µM

SMILES: CC(=O)O[C@H]1CC[C@@]2(C)C(=CC[C@H]3C(CC#N)[C@@](C)(C#N)CCC32)C1 (some centres not stated)
- TGI [1]: > 100 µM
- TGI [2]: > 100 µM
- TGI [3]: > 100 µM
- TGI [4]: > 100 µM
- TGI [6]: > 100 µM
- TGI [7]: > 100 µM
- TGI [8]: > 100 µM
- TGI [9]: > 100 µM
- TGI [10]: > 100 µM
- TGI [11]: > 100 µM
- TGI [12]: > 100 µM
- TGI [13]: > 100 µM
- TGI [14]: > 100 µM
- TGI [15]: > 100 µM
- TGI [16]: > 100 µM
- TGI [17]: > 100 µM
- TGI [18]: > 100 µM
- TGI [19]: > 100 µM
- TGI [55]: > 100 µM
- TGI [20]: > 100 µM
- TGI [21]: > 100 µM
- TGI [22]: > 100 µM
- TGI [56]: > 100 µM
- TGI [23]: > 100 µM
- TGI [57]: > 100 µM
- TGI [24]: > 100 µM
- TGI [25]: > 100 µM
- TGI [26]: > 100 µM
- TGI [27]: > 100 µM
- TGI [28]: > 100 µM
- TGI [30]: > 100 µM
- TGI [31]: 88.9 µM
- TGI [32]: > 100 µM
- TGI [33]: > 100 µM
- TGI [58]: > 100 µM
- TGI [34]: > 100 µM
- TGI [35]: > 100 µM
- TGI [36]: > 100 µM
- TGI [38]: > 100 µM
- TGI [39]: > 100 µM
- TGI [40]: > 100 µM
- TGI [41]: > 100 µM
- TGI [42]: > 100 µM
- TGI [44]: > 100 µM
- TGI [45]: > 100 µM
- TGI [46]: > 100 µM
- TGI [47]: > 100 µM
- TGI [48]: > 100 µM
- TGI [49]: > 100 µM
- TGI [50]: > 100 µM
- TGI [51]: > 100 µM
- TGI [52]: > 100 µM
- TGI [53]: > 100 µM
- TGI [54]: > 100 µM

SMILES: C=C1C2CC(OC(C)=O)C3(C)C(c4ccoc4)OC(=O)[C@@H](O)[C@]13OC1C[C@H](OC(C)=O)C(C)(C)[C@H](C(O)C(=O)OC)[C@]12C (some centres not stated)
- TGI [1]: > 100 µM
- TGI [3]: > 100 µM
- TGI [4]: > 100 µM
- TGI [6]: > 100 µM
- TGI [7]: > 100 µM
- TGI [8]: > 100 µM
- TGI [9]: > 100 µM
- TGI [10]: > 100 µM
- TGI [12]: > 100 µM
- TGI [13]: > 100 µM
- TGI [14]: > 100 µM
- TGI [15]: > 100 µM
- TGI [16]: > 100 µM
- TGI [17]: > 100 µM
- TGI [18]: > 100 µM
- TGI [55]: > 100 µM
- TGI [20]: > 100 µM
- TGI [21]: > 100 µM
- TGI [22]: > 100 µM
- TGI [56]: > 100 µM
- TGI [57]: > 100 µM
- TGI [24]: > 100 µM
- TGI [25]: > 100 µM
- TGI [26]: > 100 µM
- TGI [28]: > 100 µM
- TGI [30]: > 100 µM
- TGI [31]: 57.6 µM
- TGI [32]: > 100 µM
- TGI [33]: > 100 µM
- TGI [58]: > 100 µM
- TGI [34]: > 100 µM
- TGI [35]: > 100 µM
- TGI [36]: > 100 µM
- TGI [39]: > 100 µM
- TGI [40]: > 100 µM
- TGI [41]: > 100 µM
- TGI [42]: > 100 µM
- TGI [43]: > 100 µM
- TGI [44]: > 100 µM
- TGI [45]: > 100 µM
- TGI [46]: > 100 µM
- TGI [47]: > 100 µM
- TGI [48]: > 100 µM
- TGI [49]: > 100 µM
- TGI [50]: > 100 µM
- TGI [51]: > 100 µM
- TGI [53]: > 100 µM
- TGI [54]: > 100 µM
